Patent US10329286B2, “FXR (NR1H4) modulating compounds” (Gilead Sciences, Inc., priority 2016, dated 2019)
Read-outs that look alike come from different tables or passages of the source.

Experiments:
[1] = target: FXR ligand binding domain (Homo sapiens (Human), UniProt Q96RI1); test: Mammalian one hybrid (M1H) Gal4 reporter gene assay in HEK293 cells; type: cell-based
Procedure: Determination of a ligand mediated Gal4 promoter driven transactivation to quantify ligand binding mediated activation of FXR was performed as follows.
The cDNA part encoding the FXR ligand binding domain was cloned into vector pCMV-BD (Stratagene) as a fusion to the yeast GAL4 DNA binding domain under the control of the CMV promoter. […] The plasmid pFR-Luc (Stratagene) was used as the reporter plasmid, containing a synthetic promoter with five tandem repeats of the yeast GAL4 binding sites, driving the expression of the Photinus pyralis (American firefly) luciferase gene as the reporter gene. In order to improve experimental accuracy the plasmid pRL-CMV (Promega) was cotransfected. pRL-CMV contains the constitutive CMV promoter, controlling the expression of the Renilla reniformis luciferase. All Gal4 reporter gene assays were done in HEK293 cells (obtained from DSMZ, Braunschweig, Germany) grown in MEM with L-Glutamine and Earle's BSS supplemented with 10% fetal bovine serum, 0.1 mM nonessential amino acids, 1 mM sodium pyruvate, and 100 units Penicilin/[…] per mL at 37° C. in 5% CO2. Medium and supplements were obtained from Invitrogen. For the assay, […] cells were plated per well in 96 well plates in 100 μL per well MEM without Phenol Red and L-Glutamine and with Earle's BSS supplemented with 10% charcoal/dextran treated FBS (HyClone, South Logan, Utah), 0.1 mM nonessential amino acids, 2 mM glutamine, 1 mM sodium pyruvate, and 100 units Penicilin/[…] per mL, incubated at 37° C. in 5% CO2. The following day the cells were >90% confluence. […] MEM with the same composition as used for plating cells was added 2-4 h after addition of transfection mixture. Then compound stocks, prediluted in MEM were added (final vehicle concentration not exceeding 0.1%). […] All experiments were done in triplicates.

[2] = target: human FXR alpha ligand binding domain (Homo sapiens (Human), UniProt Q96RI1); test: FRET activity assay (LANCE; ligand mediated FXR-LBD / SRC-1 cofactor peptide interaction); type: biochemical
Procedure: Determination of a ligand mediated cofactor peptide interaction to quantify ligand binding to the nuclear receptor FXR was performed as follows.
Preparation of human FXR alpha ligand binding domain: The human FXRalpha LBD was expressed in E. coli strain BL21(DE3) as an N-terminally GST tagged fusion protein. The DNA encoding the FXR ligand binding domain was cloned into vector pDEST15 (Invitrogen). Expression was under control of an IPTG inducible T7 promoter. The amino acid boundaries of the ligand binding domain were amino acids 187-472 of Database entry NM_005123 (RefSeq).
Expression and purification of the FXR-LBD: An overnight preculture of a transformed E. coli strain was diluted 1:20 in LB-Ampicillin medium and grown at 30° C. to an optical density of OD600=0.4-0.6. Gene expression was then induced by addition of 0.5 mM IPTG. Cells were incubated an additional 6 h at 30° C., 180 rpm. Cells were collected by centrifugation (7000×g, 7 min, rt). Per liter of original cell culture, cells were resuspended in 10 mL lysis buffer (50 mM Glucose, 50 mM Tris pH 7.9, 1 mM EDTA and 4 mg/mL lysozyme) and left on ice for 30 min. Cells were then subjected to sonication and cell debris removed via centrifugation (22000×g, 30 min, 4° C.). Per 10 mL of supernatant 0.5 mL prewashed Glutathione 4B sepharose slurry (Qiagen) was added and the suspension kept slowly rotating for 1 h at 4° C. Glutathione 4B sepharose beads were pelleted by centrifugation (2000×g, 15 sec, 4° C.) and washed twice in wash buffer (25 mM Tris, 50 mM KCl, 4 mM MgCl2 and 1M NaCl). The pellet was resuspended in 3 mL elution buffer per liter of original culture (elution buffer: 20 mM Tris, 60 mM KCl, 5 mM MgCl2 and 80 mM glutathione added immediately prior to use as powder). The suspension was left rotating for 15 min at 4° C., the beads pelleted and eluted again with half the volume of elution buffer than the first time. The eluates were pooled and dialysed overnight in 20 mM Hepes buffer (pH 7.5) containing 60 mM KCl, 5 mM MgCl2 as well as 1 mM dithiothreitol and 10% (v/v) glycerol. The protein was analysed by SDS-Page.
The method measures the ability of putative ligands to modulate the interaction between the purified bacterial expressed FXR ligand binding domain (LBD) and a synthetic biotinylated peptide based on residues 676-700 of SRC-1 (LCD2, 676-700). The sequence of the peptide used was B-[…]-COOH (SEQ ID NO: 1) where the N-terminus was biotinylated (B). The ligand binding domain (LBD) of FXR was expressed as fusion protein with GST in BL-21 cells using the vector pDEST15. Cells were lysed by sonication, and the fusion proteins purified over glutathione sepharose (Pharmacia) according to the manufacturers instructions. For screening of compounds for their influence on the FXR-peptide interaction, the Perkin Elmer LANCE technology was applied. This method relies on the binding dependent energy transfer from a donor to an acceptor fluorophor attached to the binding partner of interest. For ease of handling and reduction of background from compound fluorescence LANCE technology makes use of generic fluorophore labels and time resolved detection.
Assays were done in a final volume of 25 μL in a 384 well plate, in a Tris-based buffer (20 mM Tris-HCl pH 7.5; 60 mM KCl, 5 mM MgCl2; 35 ng/μL BSA), containing 20-60 ng/well recombinantly expressed FXR-LBD fused to GST, 200-600 nM N-terminally biotinylated peptide, representing SRC1 aminoacids 676-700, 200 ng/well Streptavidin-x1APC conjugate (Prozyme) and 6-10 ng/well Eu W1024-antiGST (Perkin Elmer). DMSO content of the samples was kept at 1%. After generation of the assay mix and diluting the potentially FXR modulating ligands, the assay was equilibrated for 1 h in the dark at rt in FIA-plates black 384 well (Greiner). The LANCE signal was detected by a Perkin Elmer VICTOR2VTM Multilabel Counter. The results were visualized by plotting the ratio between the emitted light at 665 and 615 nm. […]

[3] = Gal4-FXR-LBD luciferase reporter, HEK293 cells, 16 h, read-out: M1H EC50
[4] = GST-FXR-LBD, biotinylated SRC-1 peptide 676-700, read-out: FRET EC50

Sequence of FXR ligand binding domain (Q96RI1 other isoform, or with tags, fused parts or gaps): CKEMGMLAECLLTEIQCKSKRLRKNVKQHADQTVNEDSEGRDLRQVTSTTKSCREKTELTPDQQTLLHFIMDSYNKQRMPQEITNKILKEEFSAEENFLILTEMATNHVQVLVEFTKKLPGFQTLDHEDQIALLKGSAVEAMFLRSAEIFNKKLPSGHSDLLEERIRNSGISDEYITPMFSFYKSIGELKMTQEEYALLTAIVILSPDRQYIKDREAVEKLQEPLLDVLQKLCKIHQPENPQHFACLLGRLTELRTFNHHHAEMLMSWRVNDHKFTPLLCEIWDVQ
Sequence of human FXR alpha ligand binding domain (Q96RI1 other isoform, or with tags, fused parts or gaps): as above

EC50 [1]	EC50 [2]	Compound	EC50 [1, 3]	EC50 [2, 4]
774 nM	14 nM	O=C(O)c1ccnc(N2CC(O)(c3ccc(OCc4c(-c5c(Cl)cccc5Cl)noc4C4CC4)cc3Cl)C2)c1 [Comparative Compound 1, reference compound]	–	–
–	–	O=C(O)c1ccnc(N2CC(O)(c3ccc(OCc4c(-c5c(Cl)cncc5Cl)noc4C4CC4)cc3Cl)C2)c1 [Comparative Compound 2, reference compound]	744 nM	48 nM
–	–	O=C(O)c1cc(N2CC(O)(c3ccc(OCc4c(-c5c(Cl)cccc5Cl)noc4C4CC4)cc3Cl)C2)nc(C(F)(F)F)c1 [Comparative Compound 3, reference compound]	131 nM	47 nM
–	–	O=C(O)c1ccc(N2CC(O)(c3ccc(OCc4c(-c5c(Cl)cncc5Cl)noc4C4CC4)cc3Cl)C2)nc1 [Example 1, 6-(3-(2-chloro-4-((5-cyclopropyl-3-(3,5-dichloropyridin-4-yl)isoxazol-4-yl)methoxy)phenyl)-3-hydroxyazetidin-1-yl)nicotinic acid]	95 nM	6.1 nM
–	–	O=C(O)c1ccc(N2CC(O)(c3ccc(OCc4c(-c5c(Cl)cccc5Cl)noc4C4CC4)cc3Cl)C2)nc1 [Example 2, 6-(3-(2-chloro-4-((5-cyclopropyl-3-(2,6-dichlorophenyl)isoxazol-4-yl)methoxy)phenyl)-3-hydroxyazetidin-1-yl)nicotinic acid]	7.1 nM	2.6 nM
–	–	Cc1nc(N2CC(O)(c3ccc(OCc4c(-c5c(Cl)cccc5Cl)noc4C4CC4)cc3Cl)C2)ccc1C(=O)O [Example 3, 6-(3-(2-chloro-4-((5-cyclopropyl-3-(2,6-dichlorophenyl)isoxazol-4-yl)methoxy)phenyl)-3-hydroxyazetidin-1-yl)-2-methylnicotinic acid]	6.9 nM	4.4 nM
–	–	Cc1cc(C(=O)O)cnc1N1CC(O)(c2ccc(OCc3c(-c4c(Cl)cccc4Cl)noc3C3CC3)cc2Cl)C1 [Example 4, 6-(3-(2-chloro-4-((5-cyclopropyl-3-(2,6-dichlorophenyl)isoxazol-4-yl)methoxy)phenyl)-3-hydroxyazetidin-1-yl)-5-methylnicotinic acid]	5.1 nM	3.9 nM
–	–	O=C(O)c1cnc(N2CC(O)(c3ccc(OCc4c(-c5c(Cl)cccc5Cl)noc4C4CC4)cc3Cl)C2)c(F)c1 [Example 5, 6-(3-(2-chloro-4-((5-cyclopropyl-3-(2,6-dichlorophenyl)isoxazol-4-yl)methoxy)phenyl)-3-hydroxyazetidin-1-yl)-5-fluoronicotinic acid]	4.5 nM	4.8 nM
–	–	O=C(O)c1ccc(N2CC(O)(c3ccc(OCc4c(-c5c(Cl)cccc5Cl)noc4C4CC4)cc3Cl)C2)nc1C(F)(F)F [Example 6, 6-(3-(2-chloro-4-((5-cyclopropyl-3-(2,6-dichlorophenyl)isoxazol-4-yl)methoxy)phenyl)-3-hydroxyazetidin-1-yl)-2-(trifluoromethyl)nicotinic acid]	56 nM	3.1 nM
–	–	Cc1cc(N2CC(O)(c3ccc(OCc4c(-c5c(Cl)cccc5Cl)noc4C4CC4)cc3Cl)C2)ncc1C(=O)O [Example 7, 6-(3-(2-chloro-4-((5-cyclopropyl-3-(2,6-dichlorophenyl)isoxazol-4-yl)methoxy)phenyl)-3-hydroxyazetidin-1-yl)-4-methylnicotinic acid]	6.7 nM	8.5 nM
–	–	COc1cccc(OC)c1-c1noc(C2CC2)c1COc1ccc(C2(O)CN(c3ncc(C(=O)O)cc3F)C2)c(Cl)c1 [Example 8, 6-(3-(2-chloro-4-((5-cyclopropyl-3-(2,6-dimethoxyphenyl)isoxazol-4-yl)methoxy)phenyl)-3-hydroxyazetidin-1-yl)-5-fluoronicotinic acid]	593 nM	15 nM
–	–	Cc1cc(Cl)c(-c2noc(C3CC3)c2COc2ccc(C3(O)CN(c4ncc(C(=O)O)cc4F)C3)c(Cl)c2)c(Cl)c1 [Example 9, 6-(3-(2-chloro-4-((5-cyclopropyl-3-(2,6-dichloro-4-methylphenyl)isoxazol-4-yl)methoxy)phenyl)-3-hydroxyazetidin-1-yl)-5-fluoronicotinic acid]	26 nM	57 nM
–	–	O=C(O)c1cnc(N2CC(O)(c3ccc(OCc4c(-c5c(Cl)cncc5Cl)noc4C4CC4)cc3Cl)C2)c(F)c1 [Example 10, 6-(3-(2-chloro-4-((5-cyclopropyl-3-(3,5-dichloropyridin-4-yl)isoxazol-4-yl)methoxy)phenyl)-3-hydroxyazetidin-1-yl)-5-fluoronicotinic acid]	6.4 nM	3.4 nM
–	–	O=C(O)c1cnc(N2CC(O)(c3ccc(OCc4c(C5CC5)cnn4-c4c(Cl)cccc4Cl)cc3Cl)C2)c(F)c1 [Example 11, 6-(3-(2-chloro-4-((4-cyclopropyl-1-(2,6-dichlorophenyl)-1H-pyrazol-5-yl)methoxy)phenyl)-3-hydroxyazetidin-1-yl)-5-fluoronicotinic acid]	4.9 nM	3.8 nM
